Data taken from patent US10005792B2, “Aminoindane-, aminotetrahydronaphthalene- and aminobenzocyclobutane-derived PRMT5-inhibitors” (CTXT PTY LTD, priority 2014, dated 2018).

How the values were obtained:
[1] = target: T1, Full-length PRMT5 enzyme co-expressed with MEP50 (Homo sapiens (Human), UniProt O14744); assay: PRMT5 Biochemical Assay; conditions: 200 nM histone H4 derived peptide substrate, 1 μM S-Adenosyl methionine, 4 hours at 37° C, Transcreener EPIGEN fluorescence polarisation
Experimental: Compounds of the invention may be tested for in vitro activity in the following assay: A histone H4 derived peptide is used as substrate (amino acid sequence: […]NH2). Full-length PRMT5 enzyme (NCBI Reference sequence NP-006100.2) was co-expressed with Hiss-MEP50 in insect cells and purified via Nickel immobilized metal affinity and gel filtration chromatography (“the enzyme”).
The 6 μL assay reactions are run in Greiner brand black 384-well low volume plates. All reactions contained assay buffer (phosphate buffered saline, 0.01% (v/v) Tween-20, 0.01% (w/v) albumin from chicken egg white, 1 mM dithiothreitol, 200 nM peptide substrate, 1 μM S-Adenosyl methionine, and 15 ng/reaction enzyme, with the enzyme being omitted from negative control reactions. Compounds were added in a volume of 100 nL from dilution series prepared in DMSO, positive and negative control reactions receiving the same volume DMSO without compound. The plates were sealed with adhesive seals and incubated for 4 hours at 37° C. Reaction progress was measured using the Transcreener™ EPIGEN methyltransferase assay (BellBrook Labs, Madison, Wis.) as recommended by the manufacturer. To each reaction 2 μL detection mix were added, containing coupling enzymes, fluorescence polarisation tracer, and AMP antibody. Plates were incubated for 90 min before being read on a PerkinElmer EnVision™ plate reader in fluorescence polarisation mode.

[2] = test system: symmetrical dimethylation of arginine (Di-Methyl Histone H4R3) in cell line TE11; assay: PRMT5 Biomarker Assay; type: cell-based; conditions: Homo sapiens, TE-11; TE11 cells, 72 h incubation, EpiQuik Global Di-Methyl Histone H4R3 ELISA, corrected for total protein
Experimental: (§1) Compounds of the invention may be tested for potency to inhibit symmetrical dimethylation of arginine in the following assay:
The cell line TE11 was seeded at a density of 12,000 cells per well in 96 well tissue culture plates in DME medium and 10% foetal bovine serum, and allowed to adhere overnight under standard culture conditions (37° C., 5% CO2). Compound dilutions prepared in DMSO were added to the medium, with negative control wells reserved for treatment with DMSO only and positive controls receiving a potent PRMT5 inhibitor. The concentration of the inhibitor had been previously determined to give maximum inhibition of the methylation. After incubation for 72 h, cells were washed twice in ice-cold PBS, lysed in lysis buffer (20 mM Tris pH 7.4, 135 mM NaCl, 1.5 mM MgCl2, 1 mM EGTA, 10% glycerol and 1% Triton-X100), centrifuged at 15,000×g and the supernatants collected for subsequent analysis. The methylation level was determined using the EpiQuik™ Global Di-Methyl Histone H4R3 Quantification ELISA Kit (Epigentek, Farmingdale, N.Y.) as per the manufacturer's recommendations; in parallel the total protein amount in the lysate was quantified using a Lowry protein assay. The methylation level was corrected for the total protein amount of each sample, normalised to the controls, and the data fitted against a four-parameter logistic model to determine the 50% inhibitory concentration (IC50).

[3] = test system: symmetrical dimethylation of arginine (Di-Methyl Histone H4 Arginine 3) in cell line TE11; assay: Revised PRMT5 Biomarker Assay; conditions: Homo sapiens, TE-11; TE11 cells, 72 hours incubation, immunofluorescence, corrected for cell number (Hoechst 33342), plate reader based
Experimental: as §1
The cell line TE11 was seeded at a density of 6,000 cells per well in 96 well optical quality tissue culture plates in DME medium and 10% foetal bovine serum, and allowed to adhere for 5 hours under standard culture conditions (37 degree Celsius, 5% CO2). Compound dilutions prepared in DMSO were added to the medium, with negative control wells reserved for treatment with DMSO only and positive controls receiving a potent PRMT5 inhibitor compound at 1 μM concentration. After incubation for 72 hours, the cells were fixed with 3.7% formaldehyde in PBS for 30 minutes at room temperature, washed with phosphate buffer saline and blocked with Odyssey blocking buffer (LI-COR, Lincoln, Nebr.). Rabbit anti-Di-Methyl Histone H4 Arginine 3 specific antibody (Epigentek) in Odyssey blocking buffer was added and incubated for 14 hours at 4 degree Celsius. After washing, anti-rabbit secondary antibody labelled with Alexa647 dye (LifeTechnologies) and Hoechst 33342 (1 μg/mL, SigmaAldrich) were added for 1 hour incubation. Plates were washed and read on a PerkinElmer Envision 2103 in fluorescence intensity scanning mode (24 scans across the well area). The methylation level information was corrected for the number of cells as expressed by the Hoechst 33342 stain, converted to percent inhibition relative to controls on the same plate and the data fitted against a four-parameter logistic model to determine the 50% inhibitory concentration (IC50 plate-reader based). Alternatively, the plates were imaged on a PerkinElmer Phenix high content imaging platform. Using a Columbus image analysis pipeline, individual nuclei were located by Hoechst 33342 stain and the methylation level was calculated from the Alexa647-related intensity in the same area. The resulting mean intensity per cell was directly converted to percent inhibition as outlined above (IC50, imager based)).

[4] = target: T1, Full-length PRMT5 enzyme co-expressed with MEP50; assay: Revised PRMT5 Biochemical Assay; conditions: 1 μM histone H4 derived peptide substrate, 1 μM S-Adenosyl methionine, 4 hours at 37 degree Celsius, Transcreener EPIGEN fluorescence polarisation
Method in brief: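 Full-length human PRMT5 co-expressed with His-MEP50 in insect cells (15 ng/reaction), 1 μM H4-derived peptide and 1 μM SAM in PBS/0.01% Tween-20/egg albumin/1 mM DTT, 4 h at 37 °C. SAH formation read by Transcreener EPIGEN fluorescence polarisation after 90 min detection. IC50 from four-parameter fit of plate-normalised % inhibition.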

T1 sequence (O14744 whole entry): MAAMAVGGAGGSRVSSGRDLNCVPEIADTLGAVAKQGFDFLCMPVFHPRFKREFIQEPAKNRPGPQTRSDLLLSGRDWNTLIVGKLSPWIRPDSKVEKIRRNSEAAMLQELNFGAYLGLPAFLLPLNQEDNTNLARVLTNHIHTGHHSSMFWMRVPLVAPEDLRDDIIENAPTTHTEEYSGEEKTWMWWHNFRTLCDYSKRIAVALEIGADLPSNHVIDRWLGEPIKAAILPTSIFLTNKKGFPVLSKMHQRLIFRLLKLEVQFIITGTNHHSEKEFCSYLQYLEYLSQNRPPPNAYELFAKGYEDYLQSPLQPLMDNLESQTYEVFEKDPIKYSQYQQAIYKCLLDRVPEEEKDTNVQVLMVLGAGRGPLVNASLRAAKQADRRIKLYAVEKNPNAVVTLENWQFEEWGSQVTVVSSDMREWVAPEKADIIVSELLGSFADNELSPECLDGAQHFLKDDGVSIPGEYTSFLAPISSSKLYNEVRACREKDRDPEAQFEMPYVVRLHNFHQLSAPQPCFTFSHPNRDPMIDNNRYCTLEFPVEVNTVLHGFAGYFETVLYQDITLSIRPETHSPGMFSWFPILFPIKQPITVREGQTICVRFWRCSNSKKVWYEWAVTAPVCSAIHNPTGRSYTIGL
T1 sequence (Q9BQA1 whole entry partner): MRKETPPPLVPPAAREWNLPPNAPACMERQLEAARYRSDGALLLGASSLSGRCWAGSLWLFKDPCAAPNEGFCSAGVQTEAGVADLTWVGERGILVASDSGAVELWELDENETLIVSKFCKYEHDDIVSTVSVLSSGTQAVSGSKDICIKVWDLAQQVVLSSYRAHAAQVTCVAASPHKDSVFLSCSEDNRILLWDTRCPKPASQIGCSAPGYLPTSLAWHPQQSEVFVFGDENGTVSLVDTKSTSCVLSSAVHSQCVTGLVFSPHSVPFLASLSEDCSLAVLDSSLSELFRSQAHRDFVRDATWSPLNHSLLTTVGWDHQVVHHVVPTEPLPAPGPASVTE

SMILES | IC50 [1] [nM] | IC50 [2] [nM] | IC50 [3] [µM] | IC50 [4] [nM]
Cc1nonc1COc1ccc(C(=O)NC[C@H](O)CNC2Cc3ccccc3C2)cc1 [Compound 8, (R)-N-(3-((2,3-Dihydro-1H-inden-2-yl)amino)-2-hydroxypropyl)-4-((4-methyl-1,2,5-oxadiazol-3-yl)methoxy)benzamide] | 263 | 336 | – | –
Cn1cc(Oc2ccc(C(=O)NC[C@H](O)CNC3Cc4ccccc4C3)cc2)cn1 [Compound 13, (R)-N-(3-((2,3-Dihydro-1H-inden-2-yl)amino)-2-hydroxypropyl)-4-((1-methyl-1H-pyrazol-4-yl)oxy)benzamide] | 634 | 348 | – | –
O=C(NC[C@@H](O)CNC1Cc2ccccc2C1)c1ccc(Cl)cc1 [Compound 14, (S)-4-Chloro-N-(3-((2,3-dihydro-1H-inden-2-yl)amino)-2-hydroxypropyl)benzamide] | 445 | 210 | – | –
Cn1cc(Oc2ccc(C(=O)NC[C@@H](O)CNC3Cc4ccccc4C3)cc2)cn1 [Compound 18, (S)-N-(3-((2,3-dihydro-1H-inden-2-yl)amino)-2-hydroxypropyl)-4-((1-methyl-1H-pyrazol-4-yl)oxy)benzamide] | 238 | 92 | – | –
O=C(NCC(O)CNC1Cc2ccccc2C1)c1ccc(-c2ccccc2)cc1 (stereo not shown) [Compound 24, N-(3-((2,3-Dihydro-1H-inden-2-yl)amino)-2-hydroxypropyl)-[1,1′-biphenyl]-4-carboxamide] | 425 | 363 | – | –
O=C(NCC(O)CNC1CCc2ccccc2C1)c1ccc(Cl)cc1 (stereo not shown) [Compound 30, 4-Chloro-N-(2-hydroxy-3-((1,2,3,4-tetrahydronaphthalen-2-yl)amino)propyl)benzamide] | 905 | 1910 | – | –
CC(=O)N1CCC(Nc2cc(C(=O)NCC(O)CNC3Cc4ccccc4C3)ccn2)CC1 (stereo not shown) [Compound 35, 2-((1-Acetylpiperidin-4-yl)amino)-N-(3-((2,3-dihydro-1H-inden-2-yl)amino)-2-hydroxypropyl)isonicotinamide] | 50 | 8 | 0.04 | 155
O=C(NCC(O)CNC1Cc2ccccc2C1)c1ccc(C(=O)N2C3CCC2COC3)cc1 (stereo not shown) [Compound 40, 4-(3-Oxa-8-azabicyclo[3.2.1]octane-8-carbonyl)-N-(3-((2,3-dihydro-1H-inden-2-yl)amino)-2-hydroxypropyl)benzamide] | 57 | 2 | 0.021 | –
CCOc1cc(C(=O)N2C[C@H]3C[C@@H]2CO3)ccc1C(=O)NC[C@@H](O)CNC1Cc2ccccc2C1 [Compound 127, 4-((1R,4R)-2-oxa-5-azabicyclo[2.2.1]heptane-5-carbonyl)-N-((S)-3-((2,3-dihydro-1H-inden-2-yl)amino)-2-hydroxypropyl)-2-ethoxybenzamide] | – | – | 0.002 | 137
O=C(NC[C@@H](O)CNC1Cc2ccccc2C1)c1ccc(C(=O)N2C3CCC2COC3)cc1F [Compound 133, 4-(3-oxa-8-azabicyclo[3.2.1]octane-8-carbonyl)-N((S)-3-((2,3-dihydro-1H-inden-2-yl)amino)-2-hydroxypropyl)-2-fluorobenzamide] | – | – | 0.009 | 131
CCOc1cc(C(=O)N2C3CCCC2COC3)ccc1C(=O)NC[C@@H](O)CNC1Cc2ccccc2C1 [Compound 135, 4-(3-Oxa-9-azabicyclo[3.3.1]nonane-9-carbonyl)-N—((S)-3-((2,3-dihydro-1H-inden-2-yl)amino)-2-hydroxypropyl)-2-ethoxybenzamide] | – | – | 0.0003 | 15

Continued, values first:

IC50 [1] [nM] | IC50 [2] [nM] | IC50 [3] [µM] | IC50 [4] [nM] | SMILES
310 | 69 | – | – | O=C(NCC(O)CNC1Cc2ccccc2C1)c1ccc(C(=O)N2CCOCC2)cc1 (stereo not shown) [Compound 2, N-(3-((2,3-Dihydro-1H-inden-2-yl)amino)-2-hydroxypropyl)-4-(morpholine-4-carbonyl)benzamide]
218 | 30 | 0.025 | – | O=C(NC[C@@H](O)CNC1Cc2ccccc2C1)c1ccc(C(=O)N2CCOCC2)cc1 [Compound 15, (S)-N-(3-((2,3-Dihydro-1H-inden-2-yl)amino)-2-hydroxypropyl)-4-(morpholine-4-carbonyl)benzamide]
301 | 259 | – | – | O=C(NC[C@@H](O)CNC1Cc2ccccc2C1)c1ccc(N2CCOCC2)nc1 [Compound 16, (S)-N-(3-((2,3-Dihydro-1H-inden-2-yl)amino)-2-hydroxypropyl)-6-morpholinonicotinamide]
171 | 18 | 0.106 | – | O=C(NCC(O)CNC1Cc2ccccc2C1)c1ccc(C(=O)N2CCCCC2)cc1 (stereo not shown) [Compound 22, N-(3-((2,3-Dihydro-1H-inden-2-yl)amino)-2-hydroxypropyl)-4-(piperidine-1-carbonyl)benzamide]
95 | 19 | – | 163 | C[C@@H]1COCCN1C(=O)c1ccc(C(=O)NC[C@@H](O)CNC2Cc3ccccc3C2)cc1 [Compound 37, N—((S)-3-((2,3-Dihydro-1H-inden-2-yl)amino)-2-hydroxypropyl)-4-((R)-3-methylmorpholine-4-carbonyl)benzamide]
210 | 11 | 0.053 | 310 | C[C@H]1COCCN1C(=O)c1ccc(C(=O)NC[C@@H](O)CNC2Cc3ccccc3C2)cc1 [Compound 38, N—((S)-3-((2,3-Dihydro-1H-inden-2-yl)amino)-2-hydroxypropyl)-4-((S)-3-methylmorpholine-4-carbonyl)benzamide]
– | 7 | 0.361 | 281 | COc1cc(C(=O)N2CCOCC2)ccc1C(=O)NC[C@@H](O)CNC1Cc2ccccc2C1 [Compound 98, (S)-N-(3-((2,3-dihydro-1H-inden-2-yl)amino)-2-hydroxypropyl)-2-methoxy-4-(morpholine-4-carbonyl)benzamide]
– | – | 0.012 | 40 | CCOc1cc(C(=O)N2CCOC[C@H]2C)ccc1C(=O)NC[C@@H](O)CNC1Cc2ccccc2C1 [Compound 123, N-((S)-3-((2,3-dihydro-1H-inden-2-yl)amino)-2-hydroxypropyl)-2-ethoxy-4-((R)-3-methylmorpholine-4-carbonyl)benzamide]
– | – | 0.013 | 48 | CCOc1cc(C(=O)N2CCOC[C@@H]2CC)ccc1C(=O)NC[C@@H](O)CNC1Cc2ccccc2C1 [Compound 124, N-((S)-3-((2,3-dihydro-1H-inden-2-yl)amino)-2-hydroxypropyl)-2-ethoxy-4-((S)-3-ethylmorpholine-4-carbonyl)benzamide]
